In patent US20050090524A1, “Novel adamantane derivatives” (priority 2002, published 2005):
Counter-ions that a name gives are not always drawn.

SMILES	melting point
CNCCNc1ccc2c(NC(=O)CC34CC5CC(CC(C5)C3)C4)c(Cl)ccc2n1 (as salt: hydrochloride)	232 to 234 °C
Cc1ccc2nc(NCCNCCO)ccc2c1NC(=O)CC12CC3CC(CC(C3)C1)C2 (as salt: hydrochloride)	227 to 230 °C
O=C(CC12CC3CC(CC(C3)C1)C2)Nc1c(Cl)ccc2nc(NCCNCCO)ccc12 (as salt: hydrochloride)	219 to 223 °C
O=C(CC12CC3CC(CC(C3)C1)C2)Nc1c(Cl)ccc2nc(CN[C@@H]3CCNC3)ccc12 (as salt: trifluoroacetate)	90 to 91 °C
O=C(CC12CC3CC(CC(C3)C1)C2)Nc1c(Cl)ccc2nc(CC[C@@H](O)CO)ccc12 (as salt: hydrochloride)	147 to 150 °C
CNCCCc1cccc2c(C(=O)NCC34CC5CC(CC(C5)C3)C4)ccnc12 (as salt: hydrochloride)	243 to 246 °C (dec.)
O=C(NCC12CC3CC(CC(C3)C1)C2)c1cc(CCCNCCCO)nc2ccccc12 (as salt: salt) [Example 168, N-(1-Adamantylmethyl)-2-{3-[(3-hydroxypropyl)amino]propyl}quinoline-4-carboxamide Benzoic Acid Salt]	147 to 148 °C (dec.)
CNCCCc1ccc2c(C(=O)NCC34CC5CC(CC(C5)C3)C4)cccc2n1 (as salt: hydrochloride)	158 to 160 °C
CCNCCCc1ccc2c(C(=O)NCC34CC5CC(CC(C5)C3)C4)cccc2n1 (as salt: hydrochloride) [Example 173, N-(1-Adamantylmethyl)-2-[3-(ethylamino)propyl]quinoline-5-carboxamide Dihydrochloride]	150 to 155 °C
Cc1ccc2nc(N(C)CCN(C)C)ccc2c1NC(=O)CC12CC3CC(CC(C3)C1)C2 (as salt: trifluoroacetic acid salt) [Example 14, 2-(1-Adamantyl)-N-{2-[[2-(dimethylamino)ethyl](methyl)amino]-6-methylquinolin-5-yl}acetamide]	193 to 195 °C
CNCCCNc1ccc2c(NC(=O)CC34CC5CC(CC(C5)C3)C4)c(C)ccc2n1 [Example 204, 2-(1-Adamantyl)-N-(6-methyl-2-{[3-(methylamino)propyl]amino}quinolin-5-yl)acetamide]	217 to 224 °C
CNCCCN(C)c1ccc2c(C(=O)NCC34CC5CC(CC(C5)C3)C4)c(Cl)ccc2n1 (as salt: TFA) [Example 208, N-(1-Adamantylmethyl)-6-chloro-2-{methyl[3-(methylamino)propyl]amino}quinoline-5-carboxamide]	195 to 200 °C

The remaining lines, values ahead:

melting point	SMILES
276 °C	Cc1ccc2nc(N3CCNCC3)ccc2c1NC(=O)CC12CC3CC(CC(C3)C1)C2 (as salt: hydrochloride) [Example 178, 2-(1-Adamantyl)-N-(6methyl-2-piperazin-1-ylquinolin-5-yl)acetamide Dihydrochloride]
270 °C	Cc1ccc2nc(N3CC[C@H](NC(=O)N4CC[C@H](N)C4)C3)ccc2c1NC(=O)CC12CC3CC(CC(C3)C1)C2 (as salt: hydrochloride)
224 °C	Cc1ccc2nc(N3CCN(CCO)CC3)ccc2c1NC(=O)CC12CC3CC(CC(C3)C1)C2 (as salt: hydrochloride)
291 °C	Cc1ccc2nc(N3CC[C@H](N)C3)ccc2c1NC(=O)CC12CC3CC(CC(C3)C1)C2 (as salt: hydrochloride)
103 to 107 °C	Cc1ccc2nc(NCCO)ccc2c1NC(=O)CC12CC3CC(CC(C3)C1)C2 (as salt: trifluoroacetic acid salt) [Example 13, 2-(1-Adamantyl)-N-{2[(2-hydroxyethyl)amino]-6-methylquinolin-5-yl}acetamide]
280 to 283 °C	O=C(CC12CC3CC(CC(C3)C1)C2)Nc1c(Cl)ccc2nc(N3CCNCC3)ccc12 (as salt: hydrochloride) [Example 207, 2-(1-Adamantyl)-N-(6-chloro-2-piperazin-1-ylquinolin-5-yl)acetamide]
